Our source for the IC50 values is BindingDB's records for doi:10.1021/ml300405d (Therachem Research Medilab (India), 2013).

Structures are written as SMILES.

This assay addresses Tyrosine-protein kinase SYK (Homo sapiens) (UniProt P43405). The assay can be described thus: Inhibition of human Gst-tagged Syk expressed in sf9 cells.
In general, IC50 refers to the concentration needed to halve the response being measured. In turn, `COc1ccc(Nc2nc(N3CCC(C(=O)Nc4ccc(C(=O)O)cc4)C3)nc3scnc23)nc1OC` (stereo not drawn) showed a half-maximal inhibitory concentration (IC50) of 6150 nM. The same measure for `COc1ccc(Nc2nc(N3CCCC(C(=O)Nc4ccc(C(=O)O)c(O)c4)C3)nc3scnc23)cc1OC` (stereo not drawn): 71 nM. As for `CNC(=O)c1ccc(NC(=O)c2cccc(-c3nc(Nc4ccc(OC)c(OC)c4)c4ncsc4n3)c2)cc1`, 71 nM corresponded to half-maximal inhibition (IC50).
